These results are taken from ChEMBL document CHEMBL1147645, “Design and synthesis of 2,3,4,9-tetrahydro-1H-carbazole and 1,2,3,4-tetrahydro-cyclopenta[b]indole derivatives as non-nucleoside inhibitors of hepatitis C virus NS5B RNA-dependent RNA polymerase” (Bioorg Med Chem Lett, 2006).

For series [1], the target named is RNA-directed RNA polymerase (Hepacivirus hominis, UniProt O39930). The series can be described thus: Inhibition of HCV 1b BK NS5B RNA polymerase. Further details: species or system Hepatitis C virus (isolate BK).
RNA-directed RNA polymerase, sequence (O39930 whole entry): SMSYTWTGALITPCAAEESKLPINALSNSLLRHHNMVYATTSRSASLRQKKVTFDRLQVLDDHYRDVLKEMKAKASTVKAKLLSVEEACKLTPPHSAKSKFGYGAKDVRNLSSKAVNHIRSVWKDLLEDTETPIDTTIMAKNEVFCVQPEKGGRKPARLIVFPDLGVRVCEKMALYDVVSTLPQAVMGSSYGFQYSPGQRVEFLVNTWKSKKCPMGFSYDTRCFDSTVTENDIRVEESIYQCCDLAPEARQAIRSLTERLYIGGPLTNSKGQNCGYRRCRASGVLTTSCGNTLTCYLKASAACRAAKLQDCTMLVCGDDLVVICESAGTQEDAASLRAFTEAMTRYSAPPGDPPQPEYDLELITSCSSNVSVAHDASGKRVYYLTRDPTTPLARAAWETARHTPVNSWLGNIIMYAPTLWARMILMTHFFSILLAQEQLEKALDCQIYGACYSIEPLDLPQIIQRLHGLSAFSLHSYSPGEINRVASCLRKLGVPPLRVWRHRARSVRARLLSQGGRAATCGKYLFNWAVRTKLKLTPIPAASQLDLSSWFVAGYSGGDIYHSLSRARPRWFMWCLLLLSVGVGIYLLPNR
Another series has as its system Huh-7. Description: Cytotoxicity against Huh7 cells by MTS assay. The series is classed as functional, cell-based. Conditions: Homo sapiens.
Series [2] is described as follows: Permeability at pH 7.4 by PAMPA assay. The series is classed as ADME. As to conditions: read-out: permeability. On the technique in general: The PAMPA barrier holds no transporters, so it reflects passive diffusion.

pIC50: −log10 of the molar value.

Consider `CCCC1(CC(=O)O)CCCc2c1[nH]c1c(C#N)ccc(C#N)c21` (centres undefined), for which the pIC50 (usually −log10 of the IC50, conventionally taken in molar units) in series [1] is 5.64.

Turning to `CCCC1(CC(=O)O)CCCc2c1[nH]c1c(F)c(F)ccc21` (centres undefined), the pIC50 in series [1] is less than 4.48.

The molecule `CCCC1(CC(=O)O)CCCc2c1[nH]c1cc(F)cc(F)c21` (centres undefined) showed a pIC50 in series [1] of 4.52.

The molecule `CCCC1(C(=O)O)CCc2c1[nH]c1c(C)cc(F)c(C#N)c21` (centres undefined) had a pIC50 in series [1] of 5.74.

In series [1], `CCCCC1(C(=O)O)CCc2c1[nH]c1c(C)ccc(C#N)c21` (centres undefined) had a pIC50 of 5.34.

On to `CCCC1(CC(=O)O)OCCc2c1[nH]c1c(C)ccc(C#N)c21` (centres undefined), for which, in series [1], the pIC50 is 6.48.

Consider `CCCC1(CC(=O)O)CCCc2c1[nH]c1ccccc21` (centres undefined), for which, in series [1], the pIC50 was less than 4.48.

Molecule `CCCC1(CC(=O)O)CCCc2c1[nH]c1c(C)ccc(C#N)c21` (centres undefined) showed a pIC50 in series [1] of 5.68.

Regarding `C=CCC1(C(=O)O)CCc2c1[nH]c1c(C)cc(F)c(C#N)c21` (centres undefined), in series [1], the pIC50 was 5.20.

`CCCC1(C(=O)O)CCc2c1[nH]c1c(F)ccc(C#N)c21` (centres undefined): the pIC50 in series [1] was 5.09. The pIC50 values of the last two molecules are within 0.2 log units of each other.

In series [1], `CCCCC1(C(=O)O)CCc2c1[nH]c1c(C)cc(F)c(C#N)c21` (centres undefined) showed a pIC50 of 5.82.

In series [1], `CCCCC1(C(=O)O)CCc2c1[nH]c1c(Cl)ccc(Cl)c21` (centres undefined) showed a pIC50 of 5.72.

In series [1], `C=CCC1(C(=O)O)CCc2c1[nH]c1c(Cl)ccc(Cl)c21` (centres undefined) gave a pIC50 of 5.92.

Turning to `CCCC1(C(=O)O)CCCc2c1[nH]c1c(C)ccc(C#N)c21` (centres undefined), in series [1], the pIC50 was 4.82.

In the case of `CCCC1(CC(=O)O)CCCc2c1[nH]c1ccc(Cl)cc21` (centres undefined), the pIC50 in series [1] was less than 4.48.

In the case of `CCCC1(CC(=O)O)CCCc2c1[nH]c1c(Cl)cc(Br)cc21` (centres undefined), in series [1], the pIC50 was less than 4.48.

On to `CCCC1(C(=O)O)CCc2c1[nH]c1c(C)ccc(C#N)c21` (centres undefined), for which the pIC50 in series [1] was 5.33.

With `CCCC1(C(=O)O)CCCc2c1[nH]c1c(Cl)ccc(C(F)(F)F)c21` (centres undefined), the pIC50 in series [1] is 5.24.

For the molecule `CCCC1(C(=O)O)CCCc2c1[nH]c1c(F)ccc(C#N)c21` (centres undefined), the pIC50 in series [1] was 5.00.

Molecule `CCCC1(C(=O)O)CCCc2c1[nH]c1c(Cl)ccc(Cl)c21` (centres undefined) showed a pIC50 in series [1] of 5.49.

In the case of `CCCC1(CC(=O)O)CCCc2c1[nH]c1c(F)ccc(F)c21` (centres undefined), the pIC50 in series [1] was less than 4.48.

`C=CCC1(C(=O)O)CCc2c1[nH]c1c(C)ccc(C#N)c21` (centres undefined) gave a pIC50 in series [1] of 4.96.

Take `CCCC1(CC(=O)O)CCCc2c1[nH]c1c(F)ccc(C#N)c21` (centres undefined): the pIC50 in series [1] is 5.70.

Molecule `C=CCC1(C(=O)O)CCc2c1[nH]c1c(F)ccc(C#N)c21` (centres undefined) had a pIC50 in series [1] of 4.84.

For the molecule `CCCC1(CC(=O)O)CCCc2c1[nH]c1c(C(N)=O)ccc(C#N)c21` (centres undefined), in series [1], the pIC50 was less than 4.48.

With `CCCCC1(C(=O)O)CCc2c1[nH]c1c(F)ccc(C#N)c21` (centres undefined), the pIC50 in series [1] is 5.27.

Regarding `CCCC1(C(=O)O)CCc2c1[nH]c1c(Cl)ccc(Cl)c21` (centres undefined), the figures for the pIC50 (in the series with Huh-7; in series [1]) were 4.37 and 6.26, respectively. For the same molecule, the Papp in series [2] came to 6.48 ×10⁻⁶ cm/s.
